Measurements: US7517857B2, “Immune-modulating peptide” (POSCO, priority 2002, dated 2009)
Entries after “also recorded” stand apart in the source; their conditions may differ. Where a SMILES comes first, the peptide text is derived from it. Where no end group is shown, it is not given here. [ ]: non-standard residue; d: D form.

Legend:
[1] = target: T1, FPR (Homo sapiens, UniProt P21462); assay: Akt phosphorylation in FPR-expressing RBL-2H3 cells (immunoblot); type: cell-based; conditions: 10 μM peptides 2 min (WKYMVm time course 1 μM)
T1 construct: expressed in transfected cells; host or cells: RBL-2H3 (rat basophilic leukemia) cells, G418-selected
T1 sequence (P21462 1-350): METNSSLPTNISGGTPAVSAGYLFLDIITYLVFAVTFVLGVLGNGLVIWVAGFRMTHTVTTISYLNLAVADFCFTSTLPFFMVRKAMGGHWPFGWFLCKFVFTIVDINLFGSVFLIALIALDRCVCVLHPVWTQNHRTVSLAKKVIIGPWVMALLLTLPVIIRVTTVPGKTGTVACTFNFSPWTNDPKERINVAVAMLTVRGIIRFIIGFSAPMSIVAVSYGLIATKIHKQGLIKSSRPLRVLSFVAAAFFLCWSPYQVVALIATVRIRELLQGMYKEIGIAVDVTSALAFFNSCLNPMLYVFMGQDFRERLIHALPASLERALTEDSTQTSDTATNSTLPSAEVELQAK
Method: It is well known that activation of chemoattractant receptors induces Akt activation via PI3K (19). Stimulation of cells with the peptides, electrophoresis and immunoblot analysis were performed according to the same method as in Example 5.
FPR- or FPRL1-expressing RBL-2H3 cells were stimulated with 1 μM WKYMVm for various periods of time (FIG. 4A). Two cells were preincubated with a vehicle or 100 ng/ml of PTX (24 hr), 50 μM of LY294002 (15 min), 5 μM of GFX (15 min), 10 μM BAPTA/AM (60min), or 50 μM PD98059 (60 min) prior to treatment with 1 μM of WKYMVm (FIG. 4B). FPR- and FPRL1-expressing RBL2H3 cells were stimulated with 10 μM of WKYMVm and the present peptides for 2 min or 5 min, respectively (FIG. 4C). Each sample (30 μg of protein) was subjected to 10% SDS-PAGE and phosphorylated Akt was determined by immunoblot analysis with an anti-phospho-Akt antibody. A western blot analysis with an anti-Akt antibody was performed to confirm that the same amounts of samples were used for the experiments. The results are shown FIGS. 4A to 4C. Results of FIGS. 4A to 4C are the representative of 3 independent experiments.

[2] = target: T1, FPR; assay: Displacement of 125I-labeled WKYMVm binding to FPR (FPR-expressing RBL-2H3 cells); conditions: FIG. 2A
Method: From the finding that some of the peptides (WKGMVm (SEQ ID NO: 1), WKRMVm (SEQ ID NO: 11), D-Met^6 substituted peptides) could not induce a cytosolic calcium increase, it was checked whether the peptides can bind to FPR or not. Displacement of ^125I-labeled WKYMVm binding to FPR or FPRL1 by the peptides was monitored. FPR-expressing RBL-2H3 cells were incubated with [^125I] WKYMVm in the absence or presence of increasing amounts of unlabeled WKYMVm or the peptides of SEQ ID NOs: 1 to 24.
A ligand binding analysis was performed as modified from the previous report (16). The radioiodinated WKYMVm (^125I-labeled) was purchased from NEN Lifesciences (Boston, Mass.). Briefly, FPR- or FPRL1-expressing RBL-2H3 cells were seeded into 1×10^5 cells per well of a 24-well plate and cultured overnight. After blocking the cells with a blocking buffer (33 mM HEPES, pH 7.5, 0.1% BSA in RPMI) for 2 hr, a single concentration of ^125I-labeled WKYMVm was added to cells with a binding buffer (PBS containing 0.1% BSA) in the absence or presence of 50 μM unlabelled peptides and incubated for 3 hr at 4° C. with continuous shaking. Then the samples were washed 5 times with ice-cold binding buffer, and 200 μl of lysis buffer (20 mM Tris, pH 7.5, 1% Triton X-100) was added to each well. After 20 min of lysis at room temperature, the lysates were collected. Bound ^125I-labeled WKYMVm was measured for radioactivity for a γ-ray counter.

[3] = target: T2, FPRL1 (Homo sapiens, UniProt P25090); assay: Exocytosis: β-hexosaminidase secretion in FPRL1-expressing RBL-2H3 cells; type: cell-based; conditions: for granule secretion / β-hexosaminidase release (words): FPRL1 cells, 10 μM of each peptide (WKYMVm also various concentrations)
T2 construct: expressed in transfected cells; host or cells: RBL-2H3 (rat basophilic leukemia) cells, G418-selected
T2 sequence (P25090 1-351): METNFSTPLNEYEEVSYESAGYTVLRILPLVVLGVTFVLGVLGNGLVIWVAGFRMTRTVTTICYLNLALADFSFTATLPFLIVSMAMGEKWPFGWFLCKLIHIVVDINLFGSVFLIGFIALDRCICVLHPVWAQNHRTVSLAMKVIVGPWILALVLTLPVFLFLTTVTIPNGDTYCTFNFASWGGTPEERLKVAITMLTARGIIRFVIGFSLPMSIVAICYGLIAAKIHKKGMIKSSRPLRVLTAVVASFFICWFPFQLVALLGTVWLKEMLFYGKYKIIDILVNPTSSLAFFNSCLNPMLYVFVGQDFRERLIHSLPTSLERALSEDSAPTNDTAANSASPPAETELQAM
Method: Granule secretion is one of the most important function of mast cells (20). The effect of WKYMVm on granule secretion was checked by measuring β-hexosaminidase secretion as described above (18). Briefly, RBL-2H3 cells (2×10^5/well) expressing FPR or FPRL1 were cultured overnight in a 24-well tissue culture plate. The cells were washed twice with Tyrode's buffer (137 mM NaCl, 12 mM NaHCO3, 5.6 mM glucose, 2.7 mM KCl, 1 mM CaCl2, 0.5 mM MgCl2, 0.4 mM NaH2PO4, 0.1g/100 ml BSA, and 25 mM HEPES, pH 7.4) and stimulated with each peptide. Various concentrations of WKYMVm were treated in FPR- or FPRL1-expressing RBL-2H3 cells (FIG. 5A). 1 μM of WKYMVm was used to stimulate two cell lines in the absence or presence of 10 μM BAPTA/AM (FIG. 5B). The reaction was terminated 20 min after stimulation by placing the plate on ice. Secretion of β-hexosaminidase into the medium was determined by incubating 50 μl of supernatant or cell lysate with 25 μl of 5 mM p-nitrophenyl-N-acetyl-β-D-glucosamide in 0.1 M sodium citrate buffer (pH 3.8) at 37° C. for 2 hr. At the end of the incubation, 50 μl of 0.4 M Na2CO3 were added. Absorbance was monitored at 405 nm. Data are means ±S.E. of a single representative of three experiments performed in triplicate. Values (means ±S.E.) were expressed as a percent of total β-hexosaminidase present in the cells.
10 μM of each peptide was treated in FPR- (FIG. 6A) or FPRL1-expressing RBL-2H3 cells (FIG. 6B). The peptide-induced secretion of β-hexosaminidase was determined as above. Data are means ±S.E. of a single representative of three experiments performed in triplicate.

Compound	Akt phosphorylation [1]	granule secretion / β-hexosaminidase release (words) [3]	inhibition of [^125I] WKYMVm binding [2]	concentration showing maximal β-hexosaminidase release ([3]; FPRL1-expressing RBL-2H3 cells) [nM]	granule secretion / β-hexosaminidase release (words) ([3]; listed as WKYMVm)	granule secretion / β-hexosaminidase release (words) ([3]; listed as wkymvm)
CSCC[C@H](NC(=O)[C@H](CCCNC(=N)N)NC(=O)[C@H](CCCCN)NC(=O)[C@@H](N)Cc1c[nH]c2ccccc12)C(=O)N[C@H](C(=O)N[C@H](CCSC)C(N)=O)C(C)C [WKRMVm-NH2, Trp-Lys-Arg-Met-Val-D-Met-NH2] (H-WKRMV[dM]-NH2; N-terminus assumed)	caused Akt phosphorylation	stimulated granule secretion	inhibited binding of [^125I] WKYMVm in a concentration-dependent manner	–	–	–
CSCC[C@H](NC(=O)[C@H](Cc1ccc(O)cc1)NC(=O)[C@H](CCCCN)NC(=O)[C@@H](N)Cc1c[nH]c2ccccc12)C(=O)N[C@H](C(=O)N[C@H](CCSC)C(N)=O)C(C)C [WKYMVm-NH2, Trp-Lys-Tyr-Met-Val-D-Met-NH2, reference compound]	caused Akt phosphorylation	–	inhibited binding of [^125I] WKYMVm in a concentration-dependent manner	10	caused β-hexosaminidase release in a concentration-dependent manner; also recorded: stimulated granule secretion	but not fMLF or wkymvm, stimulated granule secretion

The next lines start with results.

Akt phosphorylation [1]	granule secretion / β-hexosaminidase release (words) [3]	Compound	inhibition of [^125I] WKYMVm binding [2]	concentration showing maximal β-hexosaminidase release ([3]; FPRL1-expressing RBL-2H3 cells) [nM]	granule secretion / β-hexosaminidase release (words) ([3]; listed as WKYMVm)	granule secretion / β-hexosaminidase release (words) ([3]; listed as wkymvm)
caused Akt phosphorylation	stimulated granule secretion	CSCC[C@H](NC(=O)CNC(=O)[C@H](CCCCN)NC(=O)[C@@H](N)Cc1c[nH]c2ccccc12)C(=O)N[C@H](C(=O)N[C@H](CCSC)C(N)=O)C(C)C [WKGMVm-NH2, Trp-Lys-Gly-Met-Val-D-Met-NH2] (H-WKGMV[dM]-NH2; N-terminus assumed)	inhibited binding of [^125I] WKYMVm in a concentration-dependent manner	–	–	–
caused Akt phosphorylation	stimulated granule secretion	WKYMVE-NH2 [WKYMVE-NH2, Trp-Lys-Tyr-Met-Val-Glu-NH2]	–	–	–	–
caused Akt phosphorylation	stimulated granule secretion	WKYMVR-NH2 [WKYMVR-NH2, Trp-Lys-Tyr-Met-Val-Arg-NH2]	–	–	–	–
